Non-standard residues stand in square brackets, D forms with d. No end group written: not given here.
Experiments:
[1] = tested on: SA; assay: Crystal violet biofilm assay; assay type: cell-based, Staphylococcus aureus
From the text: (§1) Furthermore, these same inhibitors are active against EC, SE, and SM.

[2] = tested on: Escherichia coli (EC); assay: Crystal violet biofilm assay; assay type: cell-based
From the text: as §1

[3] = tested on: Pseudomonas aeruginosa (PA); assay: Crystal violet biofilm assay; assay type: cell-based
From the text: as §1

[4] = tested on: Staphylococcus epidermidis (SE); assay: Crystal violet biofilm assay; assay type: cell-based
From the text: as §1

[5] = tested on: Streptococcus mutans (SM); assay: Crystal violet biofilm assay; assay type: cell-based
From the text: as §1

[6] = tested on: P. aeruginosa PAO1 pFap biofilms; assay: In situ ThT assay of Fap amyloid in P. aeruginosa biofilms; assay type: cell-based; conditions: LB medium, 37° C., 48 h
From the text: FIG. 15. Action of synthetic α-sheet peptides in the P. aeruginosa system. […] Error bars indicate standard deviation of the mean of at least three replicates. Significance values are p<0.05: *, p<0.01: **, p<0.001: ***.
The strain used in these experiments is a fap-overexpressing mutant of P. aeruginosa PAO1 WT called PAO1 pFap. The overexpression is generated by cloning the entire fap operon into a host expression vector, which is then transformed into PAO1 WT. […] For in situ assays, overnight cultures from a single colony of freshly transformed PAO1 pFap were used to inoculate 96 well plates in the presence of synthetic α-sheet peptides in LB medium. As a control, biofilms of the deletion strain PAO1 Δfap were grown under the same conditions. Plates were covered and incubated at 37° C. for 48 h. After incubation, planktonic cells and media were gently removed from the biofilms by pipetting. The biofilms were rinsed once with PBS prior to staining with 20 μM ThT. Stained biofilms were resuspended by pipetting and sonication, and the fluorescence of ThT was measured at 448/485 nm in a plate reader.

[7] = tested on: S. aureus MN8 biofilms; assay: ThT fluorescence assay of amyloid formation in S. aureus MN8 biofilm cultures; assay type: cell-based, Staphylococcus aureus; conditions: MN8 and SH1000 WT strains, particularly MN8; 24 h, 37° C.
Experimental: We developed a novel protocol to identify amyloid fibril formation during biofilm development in two S. aureus strains—SH1000 WT, a rsbU^+ laboratory strain^27, and MN8, a clinical strain isolated from the human urogenital tract (Table 1). After 24 hours of batch growth in microtiter plates, biofilms were washed and incubated with Thioflavin T (ThT), and the resulting fluorescence signals served as a proxy for the extent of PSM fibril formation in the EM (FIG. 1A). Next, we utilized this assay to test α-sheet amyloid inhibitor designs and control peptides (sequences provided in Table 2) in batch biofilm cultures. The first inhibitor used is AP90 (Alternating Peptide #90, referred to as α1 previously^25,26). […] The AP401 and AP407 designs display similar spectral features by CD, except that AP401 has a positive signal in the random coil region (FIG. 7). AP401 has the same sequence as AP90 but with reversed chirality in the strands and turn, thus the D-amino acids give rise to an approximate mirror image CD spectrum relative to AP90. AP407 is a variant of AP90 with a disulfide bond. An unstructured random coil peptide (RC) and a β-hairpin (β) are used as structural controls.
Designed and control peptides were added to the growth medium prior to inoculation, and biofilms were allowed to grow for 24 hours at 37° C. Planktonic cells were removed and the remaining biofilms were assayed for amyloid content using ThT. […] The disulfide-linked peptide design, AP407, reduced the amyloid fibril formation by 46% and 56% in the MN8 and SH1000 WT strains, respectively. In contrast, the random coil and β-sheet control peptides were ineffective.
Overnight cultures of S. aureus (see Table 1 for a list of strains used in this study) were spun down and re-suspended in fresh Luria-Bertani (LB) media to an optical density of 0.1 (600 nm). These cultures were then mixed with reconstituted peptide (or water, in the case of controls) and aliquoted in quadruplicate into wells of a clear 48-well plate (Corning, TC-treated polystyrene). The final concentration of peptide in each well was 80 μM, unless otherwise noted. Plates were covered and biofilms were grown at 37° C. for 24 hours with gentle rocking. At this time, medium and planktonic cells were removed from wells using a vacuum and the remaining adherent biofilms were rinsed once with PBS (BupH™, Thermo Scientific). Thioflavin T (ThT), an established fluorescent label for amyloid fibrils^40, was then added to each well at a concentration of 22 μM and biofilms were incubated statically for 4 hours at room temperature. The solution was then removed from the wells and PBS was added with vigorous pipetting to detach biofilms from the plate surface. Plates were shaken at high speed for 1 minute on a plate shaker to detach any remaining biofilm material and homogenize the samples. The detached biofilm suspensions were transferred to a 96-well black-walled plate (Corning, TC-treated polystyrene) and ThT fluorescence was read at 438/495 nm on a Perkin-Elmer Enspire™ plate reader. Fluorescence measurements were corrected by subtracting the background intensity of identical samples without ThT. For calculation of live:dead cell ratios, biofilm suspensions were prepared as described above and cells were stained with a 1:1 mixture of Syto9 and propidium iodide (LIVE/DEAD BacLight™ Bacterial Viability Kit, Thermo Scientific). After 15 minutes of incubation at room temperature, fluorescence ratios of the two dyes were determined using a Perkin-Elmer Enspire™ plate reader.

[8] = tested on: synthetic PSMα1; assay: PSMα1 fibrillization assay with added inhibitors (ThT); assay type: biochemical, Staphylococcus aureus
Experimental: FIG. 5. Aggregation of synthetic PSMα1 is inhibited by designed α-sheet peptides. (A) Synthetic PSMα1 peptide (30 μM, <1% DMSO, pH 5.5) was allowed to aggregate alone and in the presence of AP90 (1:4 molar ratio), RC (1:4 molar ratio), or AP407 (1:3 molar ratio). Two different solvent conditions were used (water+<1% DMSO; LB medium+<1% DMSO) and aggregation was monitored by ThT fluorescence. Inhibition values for each peptide are reported as a percentage of the peptide-free control samples (0% inhibition). (B) ThT fluorescence curves monitored the aggregation kinetics of PSMα1 under two different solvent conditions (water+<1% DMSO, black circles; LB medium+<1% DMSO, white circles). Fluorescence values in (B) are averages of 3-6 samples, with error bars to represent the standard deviation of the mean.
Designed α-sheet peptides inhibit amyloid formation through selective binding After establishing the structural transitions required to form amyloid in PSMα1, we examined the effect of the designed α-sheet peptides on the aggregation of PSMα1 in vitro. The designed peptide inhibitors were co-incubated with freshly prepared samples of synthetic PSMα1 (30 μM) and aggregation was monitored by ThT, as described above. To ensure sample homogeneity and removal of any amyloid “seeds” prior to aggregation, the synthetic PSMα1 peptide was treated with DMSO and then diluted into filtered water. […]

RGNwNeSkMNEYSGWmLmLtMGR (RGN[dW]N[dE]S[dK]MNEYSGW[dM]L[dM]L[dT]MGR) [AP5]
Biofilm inhibition (crystal violet, FIG. 10) [1]: inhibition | Activity against biofilm-forming bacteria (crystal violet) [2]: active | Biofilm inhibition (crystal violet, FIG. 10) [3]: inhibition | Activity against biofilm-forming bacteria (crystal violet) [4]: active | Activity against biofilm-forming bacteria (crystal violet) [5]: active | Amyloid formation in biofilms (ThT) [6]: significantly inhibit amyloid formation

rGeMnLsWmneysGwTmNlKmGr (Ac-[dR]G[dE]M[dN]L[dS]W[dM][dN][dE][dY][dS]G[dW]T[dM]N[dL]K[dM]G[dR]-NH2; SMILES CSCC[C@H](NC(=O)[C@@H](CCC(=O)O)NC(=O)CNC(=O)[C@@H](CCCNC(=N)N)NC(C)=O)C(=O)N[C@H](CC(N)=O)C(=O)N[C@@H](CC(C)C)C(=O)N[C@H](CO)C(=O)N[C@@H](Cc1c[nH]c2ccccc12)C(=O)N[C@H](CCSC)C(=O)N[C@H](CC(N)=O)C(=O)N[C@H](CCC(=O)O)C(=O)N[C@H](Cc1ccc(O)cc1)C(=O)N[C@H](CO)C(=O)NCC(=O)N[C@H](Cc1c[nH]c2ccccc12)C(=O)N[C@H](C(=O)N[C@H](CCSC)C(=O)N[C@@H](CC(N)=O)C(=O)N[C@H](CC(C)C)C(=O)N[C@@H](CCCCN)C(=O)N[C@H](CCSC)C(=O)NCC(=O)N[C@H](CCCNC(=N)N)C(N)=O)[C@@H](C)O) [AP401]
Effect on amyloid fibril formation in S. aureus biofilms (ThT fluorescence, FIG. 1B) [7]: significant reduction in amyloid fibril formation

KLKpLLTSENTL (KLK[dP]LLTSENTL) [RC, unstructured random coil peptide used as structural control]
Effect on amyloid fibril formation in S. aureus biofilms (ThT fluorescence, FIG. 1B) [7]: ineffective | Inhibition of PSMα1 fibril formation ([8]; 30 μM PSMα1, LB medium + <1% DMSO, 1:4 molar ratio): did not significantly influence amyloid formation | Inhibition of PSMα1 amyloid formation ([8]; 30 μM PSMα1, water + <1% DMSO, 1:4 molar ratio (excess peptide)): little effect

SWTWEpNKWTWK (H-SWTWE[dP]NKWTWK-NH2; SMILES C[C@@H](O)[C@H](NC(=O)[C@H](Cc1c[nH]c2ccccc12)NC(=O)[C@H](CCCCN)NC(=O)[C@H](CC(N)=O)NC(=O)[C@H]1CCCN1C(=O)[C@H](CCC(=O)O)NC(=O)[C@H](Cc1c[nH]c2ccccc12)NC(=O)[C@@H](NC(=O)[C@H](Cc1c[nH]c2ccccc12)NC(=O)[C@@H](N)CO)[C@@H](C)O)C(=O)N[C@@H](Cc1c[nH]c2ccccc12)C(=O)N[C@@H](CCCCN)C(N)=O) [β, β-hairpin structural control peptide, reference compound]
Effect on amyloid fibril formation in S. aureus biofilms (ThT fluorescence, FIG. 1B) [7]: ineffective
